Like-named read-outs stand apart in the source and are kept apart here.
Conditions: lacquer, 1200 h
Method: Using the above formulation with 5% Econazole and 53% ethanol, stability testing was performed. […] In addition, gas chromatography quantitative analysis was conducted on samples stored in glass containers for 50 days at 40° C./75%RH at varying pH (5.2, 6.83, 12.2; by addition of acid or base, as necessary).
The analytical test procedure involves a simple direct dilution and injection method for determining levels of both antifungal agent and enhancer compound in the same chromatogram, i.e., without separation steps. […] Specifically, a Hewlett-Packard Model 5890 Chromatograph with a Hewlett-Packard 50+(crosslinked 50% phenylmethylsiloxane), 30 m, 0.32 mm ID, 0.50μ film (Cat. #19091L) column and Model 7673 Autoinjector, operating in split mode (split flow 0.7 mL/min; split ratio 0.652:1), using methanol as wash solvent and hexanophenone as internal standard, was used for the analysis. In Table 2 the results are reported for the average of six injections.

Econazole Assay (pH 5.2)	Econazole Assay (pH 6.83)	Econazole Assay (pH 12.2)	SEPA assay (pH 5.2)	SEPA assay (pH 6.83)	SEPA assay (pH 12.2)	Structure (SMILES)
94.29%	96.67%	97.60%				Clc1ccc(COC(Cn2ccnc2)c2ccc(Cl)cc2Cl)cc1 (stereo not drawn) [Econazole]
			93.85%	98.41%	99.36%	CCCCCCCCCC1OCCO1 [SEPA, 2-n-nonyl-1,3-dioxolane]
